Reference: patent publication US8952024B2, “Herbicidal pyrimidone derivatives” (E I du Pont de Nemours and Company, priority 2009, dated 2015)

How the values were obtained:
Assay in all cases: Test B pre-/postemergence plant response
Format in all cases: in vivo
[1] = system: wheat (Triticum aestivum)
In short: (§1)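 Greenhouse herbicide screen. Pre- and postemergence (1- to 4-leaf) spray of compound in solvent/surfactant mixture; loam–sand soil for pre, peat/vermiculite medium for post. Visual control rating 0–100 at 13 to 15 days after treatment.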

[2] = system: blackgrass (Alopecurus myosuroides)
In short: as §1

[3] = system: cocklebur (Xanthium strumarium)
In short: as §1

[4] = system: bermudagrass (Cynodon dactylon)
In short: as §1

[5] = system: woolly cupgrass (Eriochloa villosa)
In short: as §1

[6] = system: morningglory (Ipomoea coccinea)
In short: as §1

[7] = system: downy bromegrass (Bromus tectorum)
In short: as §1

[8] = system: large crabgrass (Digitaria sanguinalis)
In short: as §1

kochia (Kochia scoparia) = system: kochia (Kochia scoparia)
In short: as §1

[9] = system: Surinam grass (Brachiaria decumbens)
In short: as §1

wild oat (Avena fatua) = system: wild oat (Avena fatua)
In short: as §1

[10] = system: Italian ryegrass (Lolium multiflorum)
In short: as §1

[11] = system: ragweed (common ragweed, Ambrosia elatior)
In short: as §1

[12] = 31 g ai/ha, postemergence, scale 0 to 100, 0 is no effect, 100 is complete control
[13] = 62 g ai/ha, postemergence, 0 is no effect, 100 is complete control, 13 to 15 days
[14] = Postemergence, 250 g ai/ha, scale 0 to 100 (0 no effect, 100 complete control)
[15] = Postemergence, 125 g ai/ha, visual rating after 13 to 15 days, scale 0 (no effect) to 100 (complete control)
[16] = Postemergence, 62 g ai/ha, scale 0 (no effect) to 100 (complete control), 13 to 15 days
[17] = Preemergence, 31 g ai/ha, scale 0 to 100 (0 no effect, 100 complete control)
[18] = Preemergence, 62 g ai/ha, scale 0 to 100 (0 no effect, 100 complete control)
[19] = Preemergence, 125 g ai/ha, scale 0 to 100, 0 no effect, 100 complete control
[20] = 250 g ai/ha, Preemergence, 0 to 100 scale

O=C1CCCC(OC(=O)C2CC2)=C1C(=O)c1cnc(-c2ccccc2)n(-c2ccccc2)c1=O [Compound 88]
Plant response rating, Wheat [1, 12]: 0 | Wheat plant response rating (0 to 100 scale) [1, 13]: 5 | Plant response rating, Wheat [1, 14]: 5 | Plant response rating, Blackgrass [2, 12]: 0 | Blackgrass plant response rating (0 to 100 scale) [2, 13]: 5 | Plant response rating, Blackgrass [2, 15]: 5 | Plant response rating, Blackgrass [2, 14]: 10 | Plant response rating, Cocklebur [3, 12]: 90 | Cocklebur plant response rating (0 to 100 scale) [3, 13]: 90 | Plant response rating, Cocklebur [3, 15]: 95 | Plant response rating, Cocklebur [3, 14]: 95 | Plant response rating, Bermudagrass [4, 12]: 80 | Bermudagrass plant response rating (0 to 100 scale) [4, 13]: 80 | Plant response rating, Bermudagrass [4, 15]: 80 | Plant response rating, Bermudagrass [4, 14]: 85 | Plant response rating, Cupgrass, Woolly [5, 12]: 75 | Cupgrass, Woolly plant response rating (0 to 100 scale) [5, 13]: 80 | Plant response rating, Cupgrass, Woolly [5, 15]: 90 | Plant response rating, Cupgrass, Woolly [5, 14]: 95 | Plant response rating, Morningglory [6, 12]: 90 | Morningglory plant response rating (0 to 100 scale) [6, 13]: 90 | Plant response rating, Morningglory [6, 14]: 95 | Plant response rating, Bromegrass, Downy [7, 12]: 40 | Bromegrass, Downy plant response rating (0 to 100 scale) [7, 13]: 45 | Plant response rating, Bromegrass, Downy [7, 15]: 45 | Plant response rating, Bromegrass, Downy [7, 14]: 60 | Plant response rating, Crabgrass, Large [8, 12]: 95 | Crabgrass, Large plant response rating (0 to 100 scale) [8, 13]: 98 | Plant response rating, Crabgrass, Large [8, 15]: 98 | Plant response rating, Crabgrass, Large [8, 14]: 98 | Plant response rating, Kochia (kochia (Kochia scoparia); [12]): 75 | Kochia plant response rating (0 to 100 scale) (kochia (Kochia scoparia); [13]): 75 | Plant response rating, Kochia (kochia (Kochia scoparia); [14]): 85 | Plant response rating, Surinam Grass [9, 12]: 95 | Surinam Grass plant response rating (0 to 100 scale) [9, 13]: 95 | Plant response rating, Surinam Grass [9, 14]: 98 | Plant response rating, Oat, Wild (wild oat (Avena fatua); [12]): 50 | Oat, Wild plant response rating (0 to 100 scale) (wild oat (Avena fatua); [13]): 55 | Plant response rating, Oat, Wild (wild oat (Avena fatua); [14]): 80 | Plant response rating, Ryegrass, Italian [10, 12]: 5 | Ryegrass, Italian plant response rating (0 to 100 scale) [10, 13]: 5 | Plant response rating, Ryegrass, Italian [10, 14]: 80 | Plant response rating, Ragweed [11, 12]: 75 | Ragweed plant response rating (0 to 100 scale) [11, 13]: 80 | Plant response rating, Ragweed [11, 14]: 98

O=C1CCCC(O)=C1C(=O)c1cnc(-c2ccccc2)n(CC2CCCO2)c1=O (stereo not shown) [Compound 59]
Plant response rating, Wheat [1, 12]: 0 | Plant response rating, Wheat [1, 16]: 5 | Plant response rating, Wheat [1, 15]: 10 | Plant response rating, Wheat [1, 14]: 60 | Plant response rating, Wheat [1, 17]: 0 | Plant response rating, Wheat [1, 18]: 0 | Plant response rating, Wheat [1, 19]: 0 | Plant response rating, Blackgrass [2, 12]: 10 | Plant response rating, Blackgrass [2, 20]: 40 | Plant response rating, Blackgrass [2, 16]: 35 | Plant response rating, Blackgrass [2, 15]: 40 | Plant response rating, Blackgrass [2, 14]: 60 | Plant response rating, Blackgrass [2, 17]: 0 | Plant response rating, Blackgrass [2, 18]: 0 | Plant response rating, Blackgrass [2, 19]: 30 | Plant response rating, Cocklebur [3, 12]: 85 | Plant response rating, Cocklebur [3, 20]: 75 | Plant response rating, Cocklebur [3, 16]: 85 | Plant response rating, Cocklebur [3, 15]: 90 | Plant response rating, Cocklebur [3, 14]: 100 | Plant response rating, Cocklebur [3, 17]: 0 | Plant response rating, Cocklebur [3, 18]: 0 | Plant response rating, Cocklebur [3, 19]: 10 | Plant response rating, Bermudagrass [4, 20]: 98 | Plant response rating, Bermudagrass [4, 16]: 90 | Plant response rating, Bermudagrass [4, 15]: 98 | Plant response rating, Bermudagrass [4, 14]: 100 | Plant response rating, Bermudagrass [4, 17]: 10 | Plant response rating, Bermudagrass [4, 18]: 98 | Plant response rating, Bermudagrass [4, 19]: 98 | Plant response rating, Cupgrass, Woolly [5, 12]: 75 | Plant response rating, Cupgrass, Woolly [5, 20]: 85 | Plant response rating, Cupgrass, Woolly [5, 16]: 75 | Plant response rating, Cupgrass, Woolly [5, 15]: 90 | Plant response rating, Cupgrass, Woolly [5, 14]: 95 | Plant response rating, Cupgrass, Woolly [5, 17]: 10 | Plant response rating, Cupgrass, Woolly [5, 18]: 65 | Plant response rating, Cupgrass, Woolly [5, 19]: 65 | Plant response rating, Morningglory [6, 16]: 50 | Plant response rating, Morningglory [6, 15]: 80 | Plant response rating, Morningglory [6, 14]: 80 | Plant response rating, Morningglory [6, 18]: 0 | Plant response rating, Morningglory [6, 19]: 55 | Plant response rating, Bromegrass, Downy [7, 12]: 5 | Plant response rating, Bromegrass, Downy [7, 20]: 0 | Plant response rating, Bromegrass, Downy [7, 16]: 30 | Plant response rating, Bromegrass, Downy [7, 15]: 35 | Plant response rating, Bromegrass, Downy [7, 14]: 45 | Plant response rating, Bromegrass, Downy [7, 17]: 0 | Plant response rating, Bromegrass, Downy [7, 18]: 0 | Plant response rating, Bromegrass, Downy [7, 19]: 0 | Plant response rating, Crabgrass, Large [8, 12]: 80 | Plant response rating, Crabgrass, Large [8, 20]: 98 | Plant response rating, Crabgrass, Large [8, 16]: 85 | Plant response rating, Crabgrass, Large [8, 15]: 95 | Plant response rating, Crabgrass, Large [8, 14]: 100 | Plant response rating, Crabgrass, Large [8, 17]: 55 | Plant response rating, Crabgrass, Large [8, 18]: 95 | Plant response rating, Crabgrass, Large [8, 19]: 98 | Plant response rating, Kochia (kochia (Kochia scoparia); [20]): 98 | Plant response rating, Kochia (kochia (Kochia scoparia); [16]): 10 | Plant response rating, Kochia (kochia (Kochia scoparia); [15]): 45 | Plant response rating, Kochia (kochia (Kochia scoparia); [14]): 75 | Plant response rating, Kochia (kochia (Kochia scoparia); [17]): 0 | Plant response rating, Kochia (kochia (Kochia scoparia); [18]): 45 | Plant response rating, Kochia (kochia (Kochia scoparia); [19]): 60 | Plant response rating, Surinam Grass [9, 12]: 75 | Plant response rating, Surinam Grass [9, 16]: 80 | Plant response rating, Surinam Grass [9, 15]: 90 | Plant response rating, Surinam Grass [9, 14]: 90 | Plant response rating, Surinam Grass [9, 17]: 5 | Plant response rating, Surinam Grass [9, 18]: 75 | Plant response rating, Surinam Grass [9, 19]: 85 | Plant response rating, Oat, Wild (wild oat (Avena fatua); [12]): 30 | Plant response rating, Oat, Wild (wild oat (Avena fatua); [16]): 40 | Plant response rating, Oat, Wild (wild oat (Avena fatua); [15]): 55 | Plant response rating, Oat, Wild (wild oat (Avena fatua); [14]): 80 | Plant response rating, Oat, Wild (wild oat (Avena fatua); [17]): 0 | Plant response rating, Oat, Wild (wild oat (Avena fatua); [18]): 0 | Plant response rating, Oat, Wild (wild oat (Avena fatua); [19]): 0 | Plant response rating, Ryegrass, Italian [10, 12]: 5 | Plant response rating, Ryegrass, Italian [10, 16]: 50 | Plant response rating, Ryegrass, Italian [10, 15]: 70 | Plant response rating, Ryegrass, Italian [10, 14]: 80 | Plant response rating, Ryegrass, Italian [10, 17]: 0 | Plant response rating, Ryegrass, Italian [10, 18]: 0 | Plant response rating, Ryegrass, Italian [10, 19]: 20 | Plant response rating, Ragweed [11, 12]: 75 | Plant response rating, Ragweed [11, 16]: 80 | Plant response rating, Ragweed [11, 15]: 90 | Plant response rating, Ragweed [11, 14]: 95 | Plant response rating, Ragweed [11, 17]: 75 | Plant response rating, Ragweed [11, 18]: 90 | Plant response rating, Ragweed [11, 19]: 90
